# Data from patent publication US20240376108A1, “SALT AND CRYSTAL FORM OF PYRAZOLE-CONTAINING POLYCYCLIC DERIVATIVE, AND PREPARATION METHOD THEREFOR AND USE THEREOF” (Shanghai Hansoh Biomedical Co., Ltd., priority 2021, published 2024).
# Legend:
# [1] = Hygroscopicity experiment (DVS); assay type: physicochemical; details: 25° C.
# From the text: 7.1 Hygroscopicity experiment of crystal forms of different salts of compound 2-(2-cyano-5-oxo-8-(trifluoromethyl)pyrazolo[1,5-a]pyrido[3,2-e]pyrimidin-4(5H)-yl)-N-(5-fluoropyridin-2-yl)acetamide
# 7.1.1 Experimental objective: To investigate the hygroscopicity of crystal forms of different salts of compound 2-(2-cyano-5-oxo-8-(trifluoromethyl)pyrazolo[1,5-a]pyrido[3,2-e]pyrimidin-4(5H)-yl)-N-(5-fluoropyridin-2-yl)acetamide at different relative humidity, so as to provide a basis for storage.
# 7.1.2 Experimental protocol: Crystal forms of different salts of the compound were placed in saturated water vapor with different relative humidity to achieve dynamic equilibrium between the compound and water vapor, and the percentage of hygroscopic weight gain of the compound after equilibrium was calculated.
# [2] = Pharmacokinetic assay of the salt forms in rats (10 mg/kg); assay type: in vivo; details: SD rats; for exposure AUC and maximum plasma concentration Cmax compared with the free base: 10 mg/kg; for AUC(0-t) / MRT inf / half-life / Tmax / Cmax: male, rat, po, p.o. 10 mg/kg, plasma, vehicle 0.5% HPMC; for AUC(0-t): read-out: Area under curve AUC0-t; for MRT inf: read-out: Average residence time MRT0-∞; for half-life: read-out: Half life t1/2 (converted); for Tmax: read-out: Peak time tmax; for Cmax: read-out: Plasma concentration Cmax
# Method: 2.3 Pharmacokinetic assay of the methanesulfonate in rats
# 2.3.1. Study objective: SD rats were used as test animals. The pharmacokinetic behavior of various salt forms of 2-(2-cyano-5-oxo-8-(trifluoromethyl)pyrazolo[1,5-a]pyrido[3,2-e]pyrimidin-4(5H)-yl)-N-(5-fluoropyridin-2-yl)acetamide was studied in rat body (plasma) by orally administration at a dose of 10 mg/kg.
# 2.3.2.4 Administration: After an overnight fast, male SD rats (3 rats per group) were administered p.o. with the test compound at a dose of 10 mg/kg and a volume of 10 mL/kg.
# 2.3.2.5 Sample collection: 0.2 mL of blood was taken from the jugular vein of the rat before administration and at 0, 0.5, 1, 2, 4, 6, 8 and 24 hours after administration. The samples were stored in EDTA-K2 tubes, and centrifuged for 6 minutes at 4° C., 6000 rpm to separate the plasma. The plasma samples were stored at −80° C.
# 1) 160 μL of acetonitrile was added to 40 μL of the plasma sample for precipitation, and then the mixture was centrifuged at 3500×g for 5 to 20 minutes.
# 2) After the above process, 100 μL of the supernatant was taken to analyze the concentration of the test compound by LC/MS/MS.
# 2.3.2.7 Liquid chromatography analysis • Liquid chromatography condition: Shimadzu LC-20AD pump • Mass spectrometry condition: AB Sciex API 4000 mass spectrometer • Chromatographic column: phenomenex Gemiu 5 um C18 50×4.6 mm • Mobile phase: Eluent A was 0.1% formic acid in water, and Eluent B was acetonitrile • Flow rate: 0.8 mL/min • Elution time: 0-4.0 minutes, the eluent is as follows:
# The main parameters of pharmacokinetics were calculated by WinNonlin 8.2.
# [3] = Solid stability experiment (high temperature, high humidity, high temperature and high humidity); assay type: physicochemical
# Method: 4.1.1 Experimental objective: To investigate the physical and chemical stability of the crystal form of the compound under the conditions of high temperature, high humidity, as well as high temperature and high humidity, so as to provide a basis for crystal form screening and storage of the crystal form of the compound.
# The content of the salt was determined by HPLC using the external standard method, and the change of relevant substances was calculated by using the chromatographic peak area normalization method.
# [4] = Cycle 1, target relative humidity 0.0%
# [5] = Cycle 1, target relative humidity 10.0%
# [6] = Cycle 1, target relative humidity 20.0%
# [7] = Cycle 1, target relative humidity 30.0%
# [8] = Cycle 1, target relative humidity 40.0%
# [9] = Cycle 1, target relative humidity 50.0%
# [10] = Cycle 1, target relative humidity 60.0%
# [11] = Cycle 1, target relative humidity 70.0%
# [12] = Cycle 1, target relative humidity 80.0%
# [13] = Cycle 1, target relative humidity 90.0%
# [14] = Cycle 1, target relative humidity 95.0%
# [15] = Cycle 2, target relative humidity 0.0%
# [16] = Cycle 2, target relative humidity 10.0%
# [17] = Cycle 2, target relative humidity 20.0%
# [18] = Cycle 2, target relative humidity 30.0%
# [19] = Cycle 2, target relative humidity 40.0%
# [20] = Cycle 2, target relative humidity 50.0%
# [21] = Cycle 2, target relative humidity 60.0%
# [22] = Cycle 2, target relative humidity 70.0%
# [23] = Cycle 2, target relative humidity 80.0%
# [24] = Cycle 2, target relative humidity 90.0%
# [25] = Cycle 2, target relative humidity 95.0%
# [26] = High humidity (92.5% RH), Day 7
# [27] = High humidity (92.5% RH), Day 14
# [28] = High temperature (60° C.), Day 7
# [29] = High temperature (60° C.), Day 14
# [30] = High temperature and high humidity (50° C.&75% RH), Day 7
# [31] = High temperature and high humidity (50° C.&75% RH), Day 14
smiles,measurement,setting,value
"CCS(=O)(=O)O.N#Cc1cc2n(CC(=O)Nc3ccc(F)cn3)c(=O)c3ccc(C(F)(F)F)nc3n2n1 [Ethanesulfonate (crystal form A), 2-(2-cyano-5-oxo-8-(trifluoromethyl)pyrazolo[1,5-a]pyrido[3,2-e]pyrimidin-4(5H)-yl)-N-(5-fluoropyridin-2-yl)acetamide ethanesulfonate]","% percentage of mass change, Desorption",[1]; [4],−0.012%
same,"% percentage of mass change, Sorption",[1]; [4],0.000%
same,"% percentage of mass change, Desorption",[1]; [5],0.042%
same,"% percentage of mass change, Sorption",[1]; [5],0.051%
same,"% percentage of mass change, Desorption",[1]; [6],0.090%
same,"% percentage of mass change, Sorption",[1]; [6],0.094%
same,"% percentage of mass change, Desorption",[1]; [7],0.137%
same,"% percentage of mass change, Sorption",[1]; [7],0.139%
same,"% percentage of mass change, Desorption",[1]; [8],0.192%
same,"% percentage of mass change, Sorption",[1]; [8],0.183%
same,"% percentage of mass change, Desorption",[1]; [9],0.260%
same,"% percentage of mass change, Sorption",[1]; [9],0.231%
same,"% percentage of mass change, Desorption",[1]; [10],0.334%
same,"% percentage of mass change, Sorption",[1]; [10],0.297%
same,"% percentage of mass change, Desorption",[1]; [11],0.442%
same,"% percentage of mass change, Sorption",[1]; [11],0.401%
same,"% percentage of mass change, Desorption",[1]; [12],0.625%
same,"% percentage of mass change, Sorption",[1]; [12],0.572%
same,"% percentage of mass change, Desorption",[1]; [13],1.135%
same,"% percentage of mass change, Sorption",[1]; [13],1.025%
same,"% percentage of mass change, Desorption",[1]; [14],1.927%
same,"% percentage of mass change, Sorption",[1]; [14],1.927%
same,"% percentage of mass change, Desorption",[1]; [15],−0.016%
same,"% percentage of mass change, Sorption",[1]; [15],−0.012%
same,"% percentage of mass change, Desorption",[1]; [16],0.035%
same,"% percentage of mass change, Sorption",[1]; [16],0.037%
same,"% percentage of mass change, Desorption",[1]; [17],0.083%
same,"% percentage of mass change, Sorption",[1]; [17],0.083%
same,"% percentage of mass change, Desorption",[1]; [18],0.130%
same,"% percentage of mass change, Sorption",[1]; [18],0.127%
same,"% percentage of mass change, Desorption",[1]; [19],0.184%
same,"% percentage of mass change, Sorption",[1]; [19],0.174%
same,"% percentage of mass change, Desorption",[1]; [20],0.250%
same,"% percentage of mass change, Sorption",[1]; [20],0.228%
same,"% percentage of mass change, Desorption",[1]; [21],0.321%
same,"% percentage of mass change, Sorption",[1]; [21],0.295%
same,"% percentage of mass change, Desorption",[1]; [22],0.421%
same,"% percentage of mass change, Sorption",[1]; [22],0.388%
same,"% percentage of mass change, Desorption",[1]; [23],0.584%
same,"% percentage of mass change, Sorption",[1]; [23],0.541%
same,"% percentage of mass change, Desorption",[1]; [24],1.020%
same,"% percentage of mass change, Sorption",[1]; [24],0.942%
same,"% percentage of mass change, Desorption",[1]; [25],1.683%
same,"% percentage of mass change, Sorption",[1]; [25],1.683%
same,exposure AUC and maximum plasma concentration Cmax compared with the free base,[2],superior
same,AUC(0-t),[2],30300 ng·h/mL
same,MRT inf,[2],4.9 h
same,half-life,[2],2.6 h
same,Tmax,[2],4 h
same,Cmax,[2],3840 ng/mL
same,solid stability under high temperature,"[3]; 60° C., 7 and 14 days",stable
same,solid stability under high humidity,"[3]; 92.5% RH, 7 and 14 days",stable
same,% increase of total impurities,[3]; [26],<0.1%
same,% maximum increase of single impurity,[3]; [26],<0.1%
same,% increase of total impurities,[3]; [27],<0.1%
same,% maximum increase of single impurity,[3]; [27],<0.1%
same,% increase of total impurities,[3]; [28],>0.2%
same,% maximum increase of single impurity,[3]; [28],<0.1%
same,% increase of total impurities,[3]; [29],<0.1%
same,% maximum increase of single impurity,[3]; [29],<0.1%
same,% increase of total impurities,[3]; [30],>0.3%
same,% maximum increase of single impurity,[3]; [30],>0.1%
same,% increase of total impurities,[3]; [31],>0.2%
same,% maximum increase of single impurity,[3]; [31],>0.1%
"Br.N#Cc1cc2n(CC(=O)Nc3ccc(F)cn3)c(=O)c3ccc(C(F)(F)F)nc3n2n1 [Hydrobromide (crystal form B), 2-(2-cyano-5-oxo-8-(trifluoromethyl)pyrazolo[1,5-a]pyrido[3,2-e]pyrimidin-4(5H)-yl)-N-(5-fluoropyridin-2-yl)acetamide hydrobromide]","% percentage of mass change, Desorption",[1]; [8],4.247%
same,"% percentage of mass change, Sorption",[1]; [8],4.140%
same,"% percentage of mass change, Desorption",[1]; [9],4.359%
same,"% percentage of mass change, Sorption",[1]; [9],4.233%
same,"% percentage of mass change, Desorption",[1]; [10],4.448%
same,"% percentage of mass change, Sorption",[1]; [10],4.321%
same,"% percentage of mass change, Desorption",[1]; [11],4.532%
same,"% percentage of mass change, Sorption",[1]; [11],4.415%
same,"% percentage of mass change, Desorption",[1]; [12],4.627%
same,"% percentage of mass change, Sorption",[1]; [12],4.529%
same,"% percentage of mass change, Desorption",[1]; [13],4.787%
same,"% percentage of mass change, Sorption",[1]; [13],4.715%
same,"% percentage of mass change, Desorption",[1]; [14],4.947%
same,"% percentage of mass change, Sorption",[1]; [14],4.947%
same,"% percentage of mass change, Desorption",[1]; [15],−0.019%
same,"% percentage of mass change, Sorption",[1]; [15],−0.007%
same,"% percentage of mass change, Desorption",[1]; [16],0.124%
same,"% percentage of mass change, Sorption",[1]; [16],0.070%
same,"% percentage of mass change, Desorption",[1]; [17],0.220%
same,"% percentage of mass change, Sorption",[1]; [17],0.153%
same,"% percentage of mass change, Desorption",[1]; [18],3.962%
same,"% percentage of mass change, Sorption",[1]; [18],3.900%
same,"% percentage of mass change, Desorption",[1]; [19],4.112%
same,"% percentage of mass change, Sorption",[1]; [19],4.030%
same,exposure AUC and maximum plasma concentration Cmax compared with the free base,[2],superior
same,AUC(0-t),[2],16800 ng·h/mL
same,MRT inf,[2],4.4 h
same,half-life,[2],2.6 h
same,Tmax,[2],1 h
same,Cmax,[2],2470 ng/mL
